Like-named read-outs stand apart in the source and are kept apart here. Values belong to the molecule of their own block, whether it stands above or below them.
Columns and labels:
SGC-7901 cells = assay: MTT antiproliferative assay, SGC-7901; type: cell-based; settings: Homo sapiens, read-out: IC50 (μM) ± SD SGC-7901
Procedure: The in vitro antiproliferative activities of all target compounds 4a−k, 5a−h, and 6a−h were assayed by MTT method using human gastric cancer cell line SGC-7901 and human breast cancer cell line MCF-7.
All cell lines tested in this study were purchased from the American Type Culture Collection (ATCC, Manassas, VA). SGC-7901 (human gastric adenocarcinoma), HCT-116 (human colon carcinoma), and A549 (human pulmonary carcinoma) cells were cultured in RPMI-1640 medium containing 10% foetal serum (FBS) and 1% penicillin-streptomycin solution (100×). MCF-7 (human breast carcinoma) cells were cultured in DMEM medium containing 10% foetal serum (FBS) and 1% penicillin-streptomycin solution (100×). PC-3 (human prostate carcinoma) cells were cultured in Ham’s F-12K medium containing 10% foetal serum (FBS) and 1% penicillin-streptomycin solution (100×). All cells were cultured at 37 °C in a humidified atmosphere containing 5% CO2.
(§1) Cells grown in logarithmic phase were harvested and seeded onto 96-well cell plates at a density of 4 ∼ 5 × 10^3 cells per well (various from cell type) and were cultured for 24 h. Different concentrations of compounds were added into the wells, and the cells were cultured for another 72 h. The medium was removed, then 20 μL of MTT (5 mg/mL in PBS) was added to each well and the cells were incubated for 4 h. 150 μL of DMSO was added to each well to dissolve the formazan, and the absorbance at 490 nm of each well was measured by a microplate reader. IC50 values were calculated by SPSS software.

[1] = tested on: human umbilical vein endothelial cells (HUVEC); assay: MTT toxicity assay, normal cells HUVEC; type: cell-based; settings: for IC50: Homo sapiens, HUVEC, read-out: IC50 (μM) ± SD HUVEC; for SI-H: SI-H = IC50 (HUVEC)/IC50 (PC-3)
Procedure: (§2) The toxicity of compounds 4k and 5a was also tested by using human umbilical vein endothelial cells (HUVEC) and human liver cells (L02).
as §1

human liver cells (L02) = assay: MTT toxicity assay, normal cells L02; type: cell-based; settings: for IC50: Homo sapiens, read-out: IC50 (μM) ± SD L02; for SI-L: SI-L = IC50 (L02)/IC50 (PC-3)
Procedure: as §2, §1

[2] = tested on: cyclin-dependent kinase 1 (CDK1); assay: Western blot assay, CDK1; type: cell-based, human; settings: PC-3 cells, at the concentrations of 40 and 20 nM
Procedure: (§3) Additionally, western blot assay was employed to measure the expression level of cell cycle-related proteins cyclin-dependent kinase 1 (CDK1) and Cyclin B1.
(§4) PC-3 cells in logarithmic phase were harvested and seeded onto culture plates, and were cultured for 24 h. […] The proteins of PC-3 cells were extracted by RIPA buffer containing 1% PMSF (Beyotime Biotechnology, China). The protein concentration was measured by BCA Assay Kit (SEVEN Biotech, China). Equal amounts and concentration of protein were diluted in 5× loading buffer (Beyotime, China) and denatured by boiled for 5 min. Protein samples were separated on 12.5% SDS-PAGE gels (EpiZyme, China) and transferred to PVDF membranes (Millipore Corporation, Billerica, MA, USA). The membranes were blocked in QuickBlockTM Block Buffer (SEVEN Biotech, China) for 10 min at room temperature. Then the membranes were incubated with the primary antibodies overnight at 4 °C, including Cyclin B1 (1:2000, Proteintech, China), CDK1 (1:5000, Proteintech, China), BAX (1:5000, Proteintech, China), Bcl2 (1:1000, Proteintech, China), Caspase 9/p35/p10 (1:1000, Proteintech, China), and β-actin (1:20 000, Proteintech, China). […] The protein signals were detected by using chemiluminescent reagents kit (NCM Biotech, China) and visualised with ChemiDocImaging System (Tanon 5200, China). Protein expressions was quantified by using Fiji/ImageJ software.

Cyclin B1 = assay: Western blot assay, Cyclin B1; type: cell-based, human; settings: PC-3 cells, at the concentrations of 20 and 40 nM
Procedure: as §3, §4

Bax = assay: Western blot assay, Bax; type: cell-based, human; settings: PC-3 cells
Procedure: (§5) The expression of cell apoptosis-related proteins (Bax, Bcl-2, and cleaved caspase-9) after treatment of 4k and 5a was also measured by western blot assay.
as §4

Bcl-2 = assay: Western blot assay, Bcl-2; type: cell-based, human; settings: PC-3 cells
Procedure: as §5, §4

cleaved caspase-9 = assay: Western blot assay, cleaved caspase-9; type: cell-based, human; settings: PC-3 cells, dose-dependent manner
Procedure: as §5, §4

PC-3 cells [3] = assay: Transwell migration assay; type: cell-based, human; settings: 24 h, relative to untreated cells
Procedure: Transwell migration assay was used on PC-3 cells to further investigate the effect of 4k and 5a on cell migration.
PC-3 cells in logarithmic phase were harvested and seeded onto six-well cell plates at a density of 4 × 10^4 cells per well, and were cultured for 24 h. […] Then these cells were harvested and seeded onto the top chambers of transwell filters (Corning) at a concentration of 4 × 10^4 cells with 200 μL of FBS-free medium per well in 24-well culture plates, while the bottom chambers were added 600 μL of medium containing 10% FBS. The cells were cultured for additional 24 h, then the cells that migrated to the bottom of the top chambers were fixed with 4% paraformaldehyde and subsequently stained with crystal violet solution. Images were taken by an inverted microscope and analysed by Fiji/ImageJ software.

PC-3 cells [4] = assay: Colony formation assay; type: cell-based, human; settings: PC-3, 20 nM, 24 h treatment then one week culture
Excerpt: Colony formation assay was selected to assess the effect of 4k and 5a on clonogenic formation of PC-3 cells.
PC-3 cells in logarithmic phase were harvested and seeded onto 12-well cell plates at a density of 1 × 10^3 cells per well. […] Then the medium was removed, and cells were washed with PBS and added fresh medium containing 10% FBS. The cells were continued to culture for one week. The medium was removed, and the cells were fixed with 4% paraformaldehyde and subsequently stained with crystal violet solution. Images were taken and analysed by Fiji/ImageJ software.

[5] = 72 h drug exposure, MTT assay, normal cells

IC50 (SGC-7901 cells; SGC-7901, 72 h drug exposure, MTT assay): 0.017 ± 0.002 µM
Compound: COc1cc(C(=O)c2nn(-c3ccc(N)cc3)cc2N)cc(OC)c1OC [4k, (4-amino-1–(4-aminophenyl)-1H-pyrazol-3-yl)(3,4,5-trimethoxyphenyl)methanone]
IC50 [1, 5]: 0.57 ± 0.167 µM | SI-H [1]: 39.11 | IC50 (human liver cells (L02); [5]): 0.025 ± 0.008 µM | SI-L (human liver cells (L02)): 1.713 | level of CDK1 [2]: increase | level of Cyclin B1 (Cyclin B1): increase | expression of Bax (Bax; western blot, 20, 40 nM): significantly increased | expression of Bcl-2 (Bcl-2; western blot, 10, 20, 40 nM): significantly decreased | level of cleaved caspase-9 (cleaved caspase-9): increase | percentage of migrated cells (PC-3 cells [3]; PC-3, 5 nM): 60.4% | percentage of migrated cells (PC-3 cells [3]; PC-3, 10 nM): 25.7% | percentage of migrated cells (PC-3 cells [3]; PC-3, 20 nM): 18.7% | colony formation compared to control (PC-3 cells [4]): 5.7%

Compound: COc1cc(C2=NCC(=O)Nc3cn(-c4ccccc4)nc32)cc(OC)c1OC [5a, 2-Phenyl-8–(3,4,5-trimethoxyphenyl)-2,6-dihydropyrazolo[4,3-e][1,4]diazepin-5(4H)-one]
IC50 (SGC-7901 cells; SGC-7901, 72 h): 0.018 ± 0.003 µM | IC50 ([1]; 72 h): 0.86 ± 0.229 µM | SI-H [1]: 147.7 | IC50 (human liver cells (L02); 72 h): 0.204 ± 0.056 µM | SI-L (human liver cells (L02)): 35.00 | level of CDK1 [2]: increase | level of Cyclin B1 (Cyclin B1): increase | expression of Bax (Bax; western blot, 10, 20, 40 nM): significantly increased | expression of Bcl-2 (Bcl-2; western blot, 5, 20, 40 nM): significantly decreased | level of cleaved caspase-9 (cleaved caspase-9): increase | percentage of migrated cells (PC-3 cells [3]; PC-3, 5 nM): 53.6% | percentage of migrated cells (PC-3 cells [3]; PC-3, 10 nM): 49.1% | percentage of migrated cells (PC-3 cells [3]; PC-3, 20 nM): 27.8% | colony formation compared to control (PC-3 cells [4]): 34.9%

From article PMC12459184, “Design, synthesis, and bioevaluation of pyrazole-containing tubulin polymerisation inhibitors based on conformational constraint strategy” (Journal of Enzyme Inhibition and Medicinal Chemistry, 2025)
